Laboratory results as given in ChEMBL document CHEMBL6078707, “Preferential Synaptic Type of GABA-A Receptor Ligands Enhancing Neuronal Survival and Facilitating Functional Recovery After Ischemic Stroke” (J Med Chem, 2024).

How the values were obtained:
[1] = Thermodynamic solubility of compound in phosphate buffer at pH 7.4 at 2 mg measured after 24 hrs by HPLC analysis; type: physicochemical; details: read-out: Therm_solubility
[2] = Permeability of compound in PBS buffer at pH7.4 at 100 uM incubated for 5 hrs by UPLC-MS based PAMPA assay; type: ADME; details: pH 7.4, read-out: permeability
[3] = Permeability across apical to basolateral side in MDCKII-MDR1 cells at pH 7.4; type: ADME, cell-based, Canis lupus familiaris; details: dog, MDCK-MDR1, pH 7.4; read-out: permeability
[4] = Permeability across basolateral to apical side in MDCKII-MDR1 cells at pH 7.4; type: ADME, cell-based, Canis lupus familiaris; details: dog, MDCK-MDR1, pH 7.4
[5] = Metabolic stability in human liver microsomes assessed as half-life; type: ADME, Microsome
[6] = Metabolic stability in human liver microsomes assessed as intrinsic clearance; type: ADME, Microsome; details: read-out: CLH
[7] = Drug metabolism in human liver microsomes assessed as hydroxylation mediated metabolite formation by LCMS analysis; type: ADME, Microsome
[8] = AUC (0 to t) in male Sprague-Dawley rat plasma at 3 mg/kg, ip measured after 480 mins by LC-ESI/MS-MS analysis; type: ADME, organism-based
[9] = Terminal half-life in male Sprague-Dawley rat plasma at 3 mg/kg, ip measured after 480 mins by LC-ESI/MS-MS analysis; type: ADME, organism-based; details: read-out: beta t1/2
[10] = MRT in male Sprague-Dawley rat plasma at 3 mg/kg, ip measured after 480 mins by LC-ESI/MS-MS analysis; type: ADME, organism-based
[11] = Cmax in male Sprague-Dawley rat plasma at 3 mg/kg, ip measured after 480 mins by LC-ESI/MS-MS analysis; type: ADME, organism-based
[12] = Tmax in male Sprague-Dawley rat plasma at 3 mg/kg, ip measured after 480 mins by LC-ESI/MS-MS analysis; type: ADME, organism-based
[13] = AUC (0 to t) in male Sprague-Dawley rat brain at 3 mg/kg, ip measured after 480 mins by LC-ESI/MS-MS analysis; type: ADME, organism-based; details: in vivo, 8 h
[14] = Terminal half-life in male Sprague-Dawley rat brain at 3 mg/kg, ip measured after 480 mins by LC-ESI/MS-MS analysis; type: ADME, organism-based; details: read-out: beta t1/2
[15] = MRT in male Sprague-Dawley rat brain at 3 mg/kg, ip measured after 480 mins by LC-ESI/MS-MS analysis; type: ADME, organism-based
[16] = Cmax in male Sprague-Dawley rat brain at 3 mg/kg, ip measured after 480 mins by LC-ESI/MS-MS analysis; type: ADME, organism-based
[17] = Tmax in male Sprague-Dawley rat brain at 3 mg/kg, ip measured after 480 mins by LC-ESI/MS-MS analysis; type: ADME, organism-based
[18] = AUC (0 to t) in male Sprague-Dawley rat plasma at 3 mg/kg, iv measured after 480 mins by LC-ESI/MS-MS analysis; type: ADME, organism-based; details: in vivo, 8 h
[19] = Terminal half-life in male Sprague-Dawley rat plasma at 3 mg/kg, iv measured after 480 mins by LC-ESI/MS-MS analysis; type: ADME, organism-based; details: read-out: beta t1/2
[20] = MRT in male Sprague-Dawley rat plasma at 3 mg/kg, iv measured after 480 mins by LC-ESI/MS-MS analysis; type: ADME, organism-based
[21] = Volume of distribution in male Sprague-Dawley rat plasma at 3 mg/kg, iv measured after 480 mins by LC-ESI/MS-MS analysis; type: ADME, organism-based
[22] = Clearance in male Sprague-Dawley rat plasma at 3 mg/kg, iv measured after 480 mins by LC-ESI/MS-MS analysis; type: ADME, organism-based
[23] = AUC (0 to t) in male Sprague-Dawley rat brain at 3 mg/kg, iv measured after 480 mins by LC-ESI/MS-MS analysis; type: ADME, organism-based; details: in vivo, 8 h
[24] = Terminal half-life in male Sprague-Dawley rat brain at 3 mg/kg, iv measured after 480 mins by LC-ESI/MS-MS analysis; type: ADME, organism-based; details: read-out: beta t1/2
[25] = MRT in male Sprague-Dawley rat brain at 3 mg/kg, iv measured after 480 mins by LC-ESI/MS-MS analysis; type: ADME, organism-based
[26] = Cmax in male Sprague-Dawley rat brain at 3 mg/kg, iv measured after 480 mins by LC-ESI/MS-MS analysis; type: ADME, organism-based
[27] = Tmax in male Sprague-Dawley rat brain at 3 mg/kg, iv measured after 480 mins by LC-ESI/MS-MS analysis; type: ADME, organism-based
[28] = AUC (0 to t) in male Sprague-Dawley rat at 5 mg/kg, ip measured after 480 mins by LC-ESI/MS-MS analysis; type: ADME, organism-based; details: in vivo
[29] = Terminal half-life in male Sprague-Dawley rat at 5 mg/kg, ip measured after 480 mins by LC-ESI/MS-MS analysis; type: ADME, organism-based; details: in vivo, read-out: beta t1/2
[30] = MRT in male Sprague-Dawley rat at 5 mg/kg, ip measured after 480 mins by LC-ESI/MS-MS analysis; type: ADME, organism-based; details: in vivo
[31] = Cmax in male Sprague-Dawley rat at 5 mg/kg, ip measured after 480 mins by LC-ESI/MS-MS analysis; type: ADME, organism-based; details: in vivo
[32] = Volume of distribution in male Sprague-Dawley rat at 5 mg/kg, ip measured after 480 mins by LC-ESI/MS-MS analysis; type: ADME, organism-based; details: in vivo, 8 h
[33] = Clearance in male Sprague-Dawley rat at 5 mg/kg, ip measured after 480 mins by LC-ESI/MS-MS analysis; type: ADME, organism-based; details: in vivo
[34] = Unbound drug concentration in male Sprague-Dawley rat plasma at 3 mg/kg, ip measured after 480 mins by LC-ESI/MS-MS analysis; type: ADME, organism-based; details: in vivo, 8 h
[35] = Unbound drug concentration in male Sprague-Dawley rat brain at 3 mg/kg, ip measured after 480 mins by LC-ESI/MS-MS analysis; type: ADME, organism-based; details: in vivo, 8 h
[36] = Drug distribution in MCAO-reperfusion induced male Sprague-Dawley rat brain at 1.5 mg/kg, ip administered once daily for 3 days starting from 1.5 hrs post reperfusion by DESI mass spectrometric imaging analysis; type: ADME, organism-based; details: in vivo, 72 h, time 3 day
[37] = Half-life in male Sprague-Dawley rat at 5 mg/kg, ip by HPLC analysis; type: ADME, organism-based; details: in vivo
[38] = Half-life in human plasma; type: ADME, cell-free

## Cc1ccc2nc(-c3ccc(F)cc3)c(CC(=O)N3CCOCC3)n2n1.O=C(O)C(O)C(O)C(=O)O
[1]
  solubility thermodynamic at 24 h: 1590 µg/mL
[2]
  Papp at 5 h, 100 µM: 9.99 ×10⁻⁶ cm/s

## Cc1ccc2nc(-c3ccc(F)cc3)c(CC(=O)N3CCCC3)n2n1.O=C(O)C(O)C(O)C(=O)O
[2]
  Papp at 5 h, 100 µM: 22.9 ×10⁻⁶ cm/s

## COc1ccc(NC(=O)Cc2c(-c3ccc(F)cc3)nc3ccc(C)cn23)cc1.O=C(O)C(O)C(O)C(=O)O
[2]
  Papp at 5 h, 100 µM: 1.03 ×10⁻⁶ cm/s

## COc1ccc(NC(=O)Cc2c(-c3ccc(F)cc3)nc3ccc(C)nn23)cc1.O=C(O)C(O)C(O)C(=O)O
[1]
  solubility thermodynamic at 24 h: 130 µg/mL
[2]
  Papp at 5 h, 100 µM: 433 ×10⁻⁶ cm/s

## Cc1ccc2nc(-c3ccc(F)cc3)c(CC(=O)Nc3ccccc3)n2c1.O=C(O)C(O)C(O)C(=O)O
[2]
  Papp at 5 h, 100 µM: 5.29 ×10⁻⁶ cm/s

## Cc1ccc2nc(-c3ccc(F)cc3)c(CC(=O)Nc3ccccc3F)n2c1.O=C(O)C(O)C(O)C(=O)O
[2]
  Papp at 5 h, 100 µM: 6.25 ×10⁻⁶ cm/s

## Cc1ccc2nc(-c3ccc(F)cc3)c(CC(=O)Nc3ccc(F)cc3)n2c1.O=C(O)C(O)C(O)C(=O)O
[2]
  Papp at 5 h, 100 µM: 6.06 ×10⁻⁶ cm/s

## Cc1ccc2nc(-c3ccc(F)cc3)c(CC(=O)N3CCSCC3)n2n1.O=C(O)C(O)C(O)C(=O)O
[1]
  solubility thermodynamic at 24 h: 320 µg/mL
[2]
  Papp at 5 h, 100 µM: 11.7 ×10⁻⁶ cm/s

## Cc1ccc2nc(-c3ccc(F)cc3)c(CC(=O)N(C)C)n2n1.O=C(O)C(O)C(O)C(=O)O
[1]
  solubility thermodynamic at 24 h: > 2000 µg/mL
[2]
  Papp at 5 h, 100 µM: 9.79 ×10⁻⁶ cm/s

## Cc1ccc2nc(-c3ccc(F)cc3)c(CC(=O)N3CCCC3)n2c1.O=C(O)C(O)C(O)C(=O)O
[1]
  solubility thermodynamic at 24 h: 1870 µg/mL
[2]
  Papp at 5 h, 100 µM: 29.7 ×10⁻⁶ cm/s
[3]
  Papp A→B: 55.6 ×10⁻⁶ cm/s
[4]
  Papp B→A: 29.7 ×10⁻⁶ cm/s
[5]
  half-life: 176 min
[6]
  microsomal CLint: 9.8 µL/min/mg
[7]
  Drug metabolism: metabolite_detected
[8]
  AUC(0-t) at 8 h: 2140 ng·h/mL
[9]
  half-life: 270 min
[10]
  MRT: 50.9 min
[11]
  Cmax: 4500 ng/mL
[12]
  Tmax: 5 min
[13]
  AUCt: 8229 ng·min/g
[14]
  half-life: 653 min
[15]
  MRT: 102 min
[16]
  Cmax: 220 ng/g
[17]
  Tmax: 5 min
[18]
  AUCt: 538253 ng·min/g
[19]
  half-life: 47.8 min
[20]
  MRT: 39.7 min
[21]
  Vd: 0.383 L/kg
[22]
  clearance: 5.56 mL/min/kg
[23]
  AUCt: 15265 ng·min/g
[24]
  half-life: 135 min
[25]
  MRT: 65.5 min
[26]
  Cmax: 445 ng/g
[27]
  Tmax: 5 min
[28]
  AUC(0-t) at 8 h: 39 ng·h/mL
[29]
  half-life: 30.6 min
[30]
  MRT: 27.6 min
[31]
  Cmax: 2340 ng/mL
[32]
  Vd: 0.104 L/kg
[33]
  CL/F: 2.35 mL/min
[34]
  Drug uptake(free): 2482.75 nM
[35]
  Cp(f): 348.03 nM
[36]
  Drug uptake: Active

## Cn1c(=O)c2c(ncn2C)n(C)c1=O [CAFFEINE]
[2]
  Papp at 5 h, 100 µM: 15.2 ×10⁻⁶ cm/s

## CCN1CCCC1CNC(=O)c1cc(S(N)(=O)=O)ccc1OC (stereo not given) [SULPIRIDE]
[2]
  Papp at 5 h, 100 µM: 0.016 ×10⁻⁶ cm/s

## Cc1ccc(-c2nc3ccc(C)cn3c2CC(=O)N(C)C)cc1.Cc1ccc(-c2nc3ccc(C)cn3c2CC(=O)N(C)C)cc1.O=C(O)C(O)C(O)C(=O)O [ZOLPIDEM TARTRATE]
[2]
  Papp at 5 h, 100 µM: 21.6 ×10⁻⁶ cm/s

## Cc1ccc(-c2nc3ccc(C)cn3c2CC(=O)N(C)C)cc1 [ZOLPIDEM]
[1]
  solubility thermodynamic at 24 h: > 2000 µg/mL
[37]
  half-life: 30.6 min
[38]
  half-life: 120 min
